We go through eight compounds from patent US20080119496A1, “7-Substituted Purine Derivatives for Immunosuppression” (PHARMACOPEIA DRUG DISCOVERY, INC., priority 2006, published 2008).

In assay [1] the test system is IL-2-induced IFN-γ production. Nature of the assay: IL-2-Induced IFN-γ Production in the Mouse. In kind it is in vivo. The note with it: po, 1 h, by gavage one hour before IL-2, serum IFN-γ, female BALB/c mice, read-out: inhibition of IL-2-induced IFN-gamma production. The protocol:
Administration of IL-2 leads to an increase in serum IFN-γ in the mouse due to NK secretion of the cytokine (Thornton S, Kuhn K A, Finkelman F D and Hirsch R. NK cells secrete high levels of IFN-γ in response to in vivo administration of IL-2. Eur J Immunol 2001 31:3355-3360). The experiment was carried out essentially according to the protocol in Thornton et al. and the test compounds were administered in order to determine the level of inhibition attained. In summary, female BALB/c mice were fasted for 12-18 hours before a study but had free access to water at all times. Test compounds were administered by gavage one hour before intraperitoneal injection of IL-2 and capture antibody. At termination of the studies, the mice were sacrificed by carbon dioxide inhalation, terminal blood samples were collected by cardiac puncture and serum was generated. Serum was stored frozen until it was assayed for IFN-γ, as described by the kit manufacturer (BD Pharmingen™, San Diego, Calif.).

The test system of assay [2] is heart transplantation. The note with it: orally active; Changelian, et al., 2003; cited from earlier work.
In assay [3] the test system is kidney transplantation. Particulars: orally active; Changelian, et al., 2003; cited from earlier work.
The test system of assay [4] is spontaneous autoimmune diabetes. The note with it: NOD mouse; cited from earlier work.
Assay [5] relates to GVHD. Particulars: reviewed in Cetkovic-Cvrlje and Ucken, 2004; cited from earlier work.

As usually defined, the inhibition is the change of the read-out against control, counted positive when it falls. For `C[C@@H]1CCN(C(=O)CC#N)C[C@@H]1N(C)c1ncnc2[nH]ccc12` [CP690550], the inhibition at 30 mg/kg in assay [1] was found to be 96%.

With `C[C@@H]1CCN(C(=O)CC#N)C[C@@H]1N(C)c1ncnc2[nH]ccc12` [CP-690,550], the “animal survival / immunosuppression” value in assay [2] and in assay [3] was “prolong animal survival” in each case.

As for `O=c1[nH]c2cnc(-n3cnc4ccccc43)nc2n1[C@@H]1CCOc2c(F)cccc21` [Example 16, 2-(1H-Benzo[d]imidazol-1-yl)-9-((R)-8-fluorochroman-4-yl)-7H-purin-8(9H)-one], in assay [1], the inhibition at 30 mg/kg was above 40%.

As to `O=c1[nH]c2cnc(-n3cnc4cc(F)ccc43)nc2n1[C@@H]1CCOc2c(F)cccc21` [Example 28, 2-(5-Fluoro-1H-benzo[d]imidazol-1-yl)-9-((R)-8-fluorochroman-4-yl)-7H-purin-8(9H)-one], the inhibition at 30 mg/kg in assay [1] was above 40%.

For `Cn1c(=O)n(C2CCOc3c(F)cc(F)cc32)c2nc(-n3cnc4ccc(C#N)cc43)ncc21` (stereo not shown) [Example 501], in assay [1], the inhibition at 30 mg/kg is above 40%.

Consider `Cn1c(=O)n(C2CCOc3ccc(F)cc32)c2nc(-n3cnc4ccc(C#N)cc43)ncc21` (stereo not shown) [Example 504], for which the inhibition at 30 mg/kg in assay [1] is above 40%.

Consider `Cn1c(=O)n([C@@H]2CCOc3c(F)cccc32)c2nc(-n3cnc4ccc(C#N)cc43)ncc21` [Example 505], for which the inhibition at 30 mg/kg in assay [1] is above 40%.

Turning to `COc1cc2ncnc(Nc3ccc(O)cc3)c2cc1OC` [JANEX-1], the “spontaneous autoimmune diabetes development” value in assay [4] is reported as “prevent spontaneous autoimmune diabetes development”. Also, in assay [5], the “severity of GVHD” value is listed as “attenuate the severity of GVHD”.
